Experimental findings from ChEMBL document CHEMBL5329213, “Discovery of a novel GPR35 agonist with high and equipotent species potency for oral treatment of IBD” (Bioorg Med Chem, 2023) are described below.

The source made the active and inactive calls. No cut-off for these calls is given here.

Data set [1] deals with T1, G-protein coupled receptor 35 (Mus musculus, UniProt Q9ES90). The data set can be described thus: Agonist activity at mouse GPR35 expressed in HEK293 cells co-expressing Galpha16 assessed as increase in calcium mobilization by Fluo-4 AM dye based fluorescence assay. The format is functional, cell-based.
For data set [2], the system named is Mus musculus. The data set can be described thus: Anti-colitis activity against DSS-induced ulcerative colitis C57BL/6 mouse model assessed as reduction in colitis symptoms by measuring decrease in stool thinning at 200 mg/kg, po qd for 7 days administered via gavage. It is filed as functional, organism-based. The conditions noted are these: time 7.0 day.
The test system of data set [3] is Mus musculus. As to the kind of experiment: Anti-colitis activity against DSS-induced ulcerative colitis C57BL/6 mouse model assessed as reduction in colitis symptoms by measuring decrease in body weight loss at 200 mg/kg, po qd for 7 days administered via gavage. The format is functional, organism-based. The conditions noted are these: time 7.0 day.
Data set [4] deals with Mus musculus. The data set can be described thus: Anti-colitis activity against DSS-induced ulcerative colitis C57BL/6 mouse model assessed as reduction in colitis symptoms by measuring decrease in rectal bleeding at 200 mg/kg, po qd for 7 days administered via gavage. It is filed as functional, organism-based. The conditions noted are these: time 7.0 day.
A short description of data set [5]: Agonist activity at rat GPR35 by beta-arrestin recruitment assay.
Data set [6] addresses T2, G-protein coupled receptor 35 (Homo sapiens, UniProt Q9HC97). The data set can be described thus: Agonist activity at human GPR35 expressed in HEK293 cells co-expressing Galpha16 assessed as increase in calcium mobilization by Fluo-4 AM dye based fluorescence assay. The format is functional, cell-based.
In data set [7] the target is G-protein coupled receptor 35 (Mus musculus) (UniProt Q9ES90). As to the kind of experiment: Agonist activity at mouse GPR35 expressed in HEK293 cells co-expressing Galpha16 assessed as increase in calcium mobilization by Fluo-4 AM dye based fluorescence assay relative to-iodoxamide. The format is functional, cell-based. The conditions noted are these: filed as agonist. For orientation: Calcium flux is commonly read through the fluorescence of an indicator in the cells.

Data set [8] is described as follows: Stability of the compound in mouse plasma. It is filed as ADME, cell-free.
The nature of data set [9]: Stability of the compound in plasma of DSS-induced ulcerative colitis C57BL/6 mouse model at 20 mg/kg, po qd for 7 days administered via gavage. The conditions noted are these: in vivo, 168 h, time 7 day. It is filed as ADME, organism-based.
Data set [10] in a line: Agonist activity at rat GPR35 expressed in HEK293 cells co-expressing Galpha16 assessed as increase in calcium mobilization by Fluo-4 AM dye based fluorescence assay.
Data set [11] has as its target T2, G-protein coupled receptor 35. The data set can be described thus: Agonist activity at human GPR35 by beta-arrestin recruitment assay. It is filed as functional.
Data set [12] concerns the target T1, G-protein coupled receptor 35. The data set can be described thus: Agonist activity at mouse GPR35 by beta-arrestin recruitment assay. The format is functional.

T2 sequence (Q9HC97 whole entry): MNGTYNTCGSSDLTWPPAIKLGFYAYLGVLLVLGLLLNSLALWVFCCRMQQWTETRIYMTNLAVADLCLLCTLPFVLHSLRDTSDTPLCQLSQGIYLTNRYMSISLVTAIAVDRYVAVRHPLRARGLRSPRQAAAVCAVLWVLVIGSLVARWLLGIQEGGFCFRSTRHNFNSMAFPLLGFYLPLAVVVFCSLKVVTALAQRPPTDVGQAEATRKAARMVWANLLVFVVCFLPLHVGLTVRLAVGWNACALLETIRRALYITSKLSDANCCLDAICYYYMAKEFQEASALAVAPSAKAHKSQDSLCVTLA
G-protein coupled receptor 35 (Mus musculus), sequence (Q9ES90 whole entry): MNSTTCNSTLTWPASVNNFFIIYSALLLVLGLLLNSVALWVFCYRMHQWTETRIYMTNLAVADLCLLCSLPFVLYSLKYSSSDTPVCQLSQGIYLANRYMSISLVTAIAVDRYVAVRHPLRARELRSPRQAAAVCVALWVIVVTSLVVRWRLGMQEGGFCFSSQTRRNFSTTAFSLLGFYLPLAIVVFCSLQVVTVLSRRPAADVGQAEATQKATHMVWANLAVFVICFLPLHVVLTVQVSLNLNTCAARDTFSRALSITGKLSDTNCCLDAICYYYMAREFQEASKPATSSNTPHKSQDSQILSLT
T1 sequence (Q9ES90 whole entry): as above

In the case of `O=C(O)C(=O)Nc1cccc(NC(=O)C(=O)O)c1Cl`, in data set [1], the EC50 came to 3640 nM.
With `Cc1cc(NC(=O)C(=O)O)c(Cl)c(NC(=O)C(=O)O)c1`, the concentration for a half-maximal effect (EC50) in data set [1] was found to be 69.1 nM.
For `COC(=O)C(=O)Nc1cc(C(F)(F)F)cc(NC(=O)C(=O)OC)c1Cl`, in data set [1], the EC50 was determined as 27.2 nM.
The same measure, in the same setting: with `Cc1c(NC(=O)C(=O)O)cc(C(=O)O)cc1NC(=O)C(=O)O` the figure was above 10000 nM.
In the case of `Nc1ccc(O)c(C(=O)O)c1`, the outcome in the data set with Mus musculus [2], with Mus musculus [3] and in the data set on Mus musculus [4] was Active.
Take `N#Cc1cc(NC(=O)C(=O)O)cc(NC(=O)C(=O)O)c1`: the EC50 in [1] worked out at 376 nM.
For `COc1c(NC(=O)C(=O)O)cc(C#N)cc1NC(=O)C(=O)O`, the EC50 in data set [1] was 3110 nM.
Take `O=C(O)C(=O)Nc1cc(C(F)(F)F)cc(NC(=O)C(=O)O)c1Cl`: the EC50 in data set [1] worked out at 55.8 nM.
With `O=C(O)c1cc2ccccc2c(Cc2c(O)c(C(=O)O)cc3ccccc23)c1O` [PAMOIC ACID], the 50% effective concentration (EC50) in data set [5] was above 100000 nM.
For `CN(C)c1c(NC(=O)C(=O)O)cc(C#N)cc1NC(=O)C(=O)O`, the EC50 in data set [1] amounted to 9160 nM.
As for `CCOC(=O)C(=O)Nc1cc(Br)cc(NC(=O)C(=O)OCC)c1Cl`, the EC50 in [1] was found to be 42.5 nM.
With `O=C(Nc1cc(C(F)(F)F)cc(NC(=O)C(=O)OC2CC2)c1Cl)C(=O)OC1CC1`, the 50% effective concentration (EC50) was 75 nM in data set [6] and 119 nM in data set [1]. Further, the Emax in data set [7] stood at 86%.
As for `CCOC(=O)C(=O)Nc1cc(C(F)(F)F)cc(NC(=O)C(=O)OCC)c1Cl`, the EC50 in data set [1] was determined as 63.7 nM. For the same molecule, the Stability result in data set [8] and in data set [9] was “Unstable” in each case.
With `O=C(O)C(=O)Nc1cccc(NC(=O)C(=O)O)c1`, the EC50 was 4250 nM in data set [6] and 8060 nM in data set [1]. The Emax in data set [7] is 105%.
Turning to `COc1ccc(C(=O)Nc2cc(Br)cc3c(=O)cc(C(=O)O)oc23)cc1`, the EC50 in data set [5] is 1400 nM.
Regarding `O=C(O)C(=O)Nc1cc(NC(=O)C(=O)O)cc(C(F)(F)F)c1`, the EC50 in data set [1] turned out to be 12.4 nM.
As for `CCCCc1cc2c(=O)cc(C(=O)O)[nH]c2c2c(=O)cc(C(=O)O)[nH]c12` [BUFROLIN], in data set [5], the EC50 was 10 nM.
Regarding `O=C(O)C(=O)Nc1cc(C(=O)O)cc(NC(=O)C(=O)O)c1Cl`, the half-maximal effective concentration (EC50) amounted to 125 nM in data set [6] and 5300 nM in data set [1]. The Emax in data set [7] came to 75%.
Consider `N#Cc1cc(NC(=O)C(=O)O)c(Cl)c(NC(=O)C(=O)O)c1` [LODOXAMIDE], for which the 50% effective concentration (EC50) in [6] came out at 41.1 nM; in data set [1], 422 nM; in data set [10], 21.5 nM; in data set [11] it was 4 nM; in data set [5], 13 nM.
As for `O=C(Nc1cc(C(F)(F)F)cc(NC(=O)C(=O)OC2CCCCC2)c1Cl)C(=O)OC1CCCCC1`, the EC50 in data set [1] stood at 61 nM.
Regarding `CCOC(=O)C(=O)Nc1cc(C#N)cc(NC(=O)C(=O)OCC)c1Cl` [LODOXAMIDE ETHYL], the figures for the EC50 in data set [6] and in data set [1] were 29.2 nM and 263 nM, respectively. Also, the maximal effect (Emax) in [7] is 139%.
As to `CCOC(=O)C(=O)Nc1cccc(NC(=O)C(=O)OCC)c1Cl`, the EC50 in [1] was found to be 3260 nM.
As to `CCCOc1ccccc1-c1nc2[nH]nnc2c(=O)[nH]1` [ZAPRINAST], the 50% effective concentration (EC50) was 1000 nM in data set [12] and 100 nM in data set [5].
Consider `O=C(O)C(=O)Nc1cc(Br)cc(NC(=O)C(=O)O)c1Cl`, for which the EC50 in [6] came out at 25.8 nM; in [1], 28.1 nM; in data set [10], 34.6 nM. Also, in [7], the maximal effect (Emax) was 106%.
`O=C1N/C(=N/c2ccccc2F)S/C1=C\c1ccc(C(=O)O)cc1` registered an EC50 in data set [5] of 8000 nM.
As for `O=C(Nc1cc(C(F)(F)F)cc(NC(=O)C(=O)OC2CCCC2)c1Cl)C(=O)OC1CCCC1`, the figures for the EC50 in data set [6] and in data set [1] were 1040 nM and 126 nM, respectively. Also, the Emax in [7] was found to be 91%.
As to `O=C(O)c1cc(=O)c2c(OCC(O)COc3cccc4oc(C(=O)O)cc(=O)c34)cccc2o1` [CROMOLYN], the results for the EC50 in data set [11], in data set [12] and in data set [5] were 8000 nM, 58000 nM and 4000 nM, respectively.
For the molecule `CCOC(=O)C(=O)Nc1cc(C(=O)OCC(C)C)cc(NC(=O)C(=O)OCC)c1Cl`, the EC50 in [1] stood at 20.9 nM.

One may read the EC50 as the concentration that produces a half-maximal response. The Emax is the greatest response seen or fitted, relative to the assay's reference.
